The record followed here is ChEMBL document CHEMBL1141004, “N-((8-hydroxy-5-substituted-quinolin-7-yl)(phenyl)methyl)-2-phenyloxy/amino-acetamide inhibitors of ADAMTS-5 (Aggrecanase-2)” (Bioorg Med Chem Lett, 2008).

pIC50: −log10 of the molar value.

Usually pIC50 stands for −log10 of the IC50, conventionally taken in molar units. Low values mean a large IC50, high ones a small IC50. One may read the half-life as the time needed for the level to fall by half in the phase considered.

The target of series [1] is T1, A disintegrin and metalloproteinase with thrombospondin motifs 5 (Homo sapiens, UniProt Q9UNA0).
T1 sequence (Q9UNA0 whole entry): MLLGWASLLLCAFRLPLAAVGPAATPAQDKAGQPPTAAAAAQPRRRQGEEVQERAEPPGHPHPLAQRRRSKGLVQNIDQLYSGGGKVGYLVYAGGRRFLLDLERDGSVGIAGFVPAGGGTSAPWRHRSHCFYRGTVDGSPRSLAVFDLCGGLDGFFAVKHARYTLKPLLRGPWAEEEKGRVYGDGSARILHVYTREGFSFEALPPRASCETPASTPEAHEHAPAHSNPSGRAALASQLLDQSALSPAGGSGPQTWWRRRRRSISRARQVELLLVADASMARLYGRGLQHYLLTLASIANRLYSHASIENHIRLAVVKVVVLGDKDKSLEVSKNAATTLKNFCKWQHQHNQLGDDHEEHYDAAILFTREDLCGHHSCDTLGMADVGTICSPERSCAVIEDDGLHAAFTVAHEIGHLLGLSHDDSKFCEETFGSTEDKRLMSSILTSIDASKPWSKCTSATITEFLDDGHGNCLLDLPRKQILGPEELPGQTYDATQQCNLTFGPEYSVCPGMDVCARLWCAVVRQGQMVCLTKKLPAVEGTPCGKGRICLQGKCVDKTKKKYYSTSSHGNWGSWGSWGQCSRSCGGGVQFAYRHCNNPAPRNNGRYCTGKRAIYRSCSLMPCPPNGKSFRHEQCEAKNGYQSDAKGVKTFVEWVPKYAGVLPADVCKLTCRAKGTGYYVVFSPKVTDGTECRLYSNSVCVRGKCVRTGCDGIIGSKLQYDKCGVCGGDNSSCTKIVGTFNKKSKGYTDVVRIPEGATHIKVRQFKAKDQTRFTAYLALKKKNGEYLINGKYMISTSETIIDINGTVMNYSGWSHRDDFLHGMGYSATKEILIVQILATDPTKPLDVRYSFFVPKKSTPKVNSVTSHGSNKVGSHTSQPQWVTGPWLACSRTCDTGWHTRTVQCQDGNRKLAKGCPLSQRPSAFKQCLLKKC
As to the kind of experiment: Inhibition of ADAMTS5 by FRET assay.

Series [2] has as its target Cytochrome P450 3A4 (Homo sapiens, UniProt P08684). Nature of the series: Inhibition of CYP3A4 at 30 uM by FRET assay. The series is classed as ADME.
Series [3] is described as follows: Metabolic stability in rat liver microsomes assessed as half life. The series is classed as ADME, Microsome.

Chain of Cytochrome P450 3A4 (P08684 whole entry): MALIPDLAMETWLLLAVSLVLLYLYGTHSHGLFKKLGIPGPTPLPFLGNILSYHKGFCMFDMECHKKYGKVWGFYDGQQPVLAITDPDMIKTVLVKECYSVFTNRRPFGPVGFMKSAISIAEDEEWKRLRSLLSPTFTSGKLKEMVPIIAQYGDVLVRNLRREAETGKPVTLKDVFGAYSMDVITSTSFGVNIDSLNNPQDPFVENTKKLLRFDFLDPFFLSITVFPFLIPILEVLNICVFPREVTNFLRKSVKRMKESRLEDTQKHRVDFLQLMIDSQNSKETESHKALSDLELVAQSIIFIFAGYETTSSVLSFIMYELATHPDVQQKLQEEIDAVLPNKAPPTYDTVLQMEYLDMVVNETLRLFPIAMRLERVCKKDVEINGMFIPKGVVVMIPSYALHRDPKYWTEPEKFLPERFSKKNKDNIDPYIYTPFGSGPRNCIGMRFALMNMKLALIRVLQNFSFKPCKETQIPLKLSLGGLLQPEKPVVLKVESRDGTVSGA

With `COc1ccc(C(NC(=O)COc2ccc(Cl)c(C)c2)c2cc(Cl)c3cccnc3c2O)cc1` (stereo unspecified), the pIC50 in series [1] is below 5.00. This compound also yielded an inhibition (INH) in series [2] of 25%. Moreover, the half-life in series [3] amounted to 9 min.
The corresponding values for `Cc1cc(OCC(=O)NC(c2cccc([N+](=O)[O-])c2)c2cc(Cl)c3cccnc3c2O)ccc1Cl` (stereo unspecified) are below 5.00, 19% and 30 min.
